Results from patent publication US20240058308A1, “TREATMENT AND PREVENTION OF DRY MACULAR DEGENERATION” (The Regents of the University of Michigan, priority 2021, published 2024).

Tests used:
[1] = system: primary human fetal RPE (hfRPE) culture; assay: Autophagy flux assay with NH4Cl lysosomal alkalinization; format: cell-based; conditions: inducer 22.5 hours, then 25 mM NH4Cl for final 1.5 hours
Description: Cultures were exposed to compounds or vehicle (DMSO) for 24 hours. […] (C) Autophagy flux assays. After application of inducers or vehicle (DMSO) for 22.5 hours, 25 mM of NH4Cl, a lysosomal alkalizing agent, or H2O were added for a final 1.5 hours to inhibit autophagy flux.
Increases in both LC3 lipidation and autophagosome formation could result from downstream blockade of autophagy at the lysosome.

primary hfRPE culture [2] = system: primary hfRPE culture
Description: Phagocytosis assays using bovine outer segments was performed using the “pulse-only” method [Ref 43; incorporated by reference in its entirety]. Values at the zero-hour timepoint were used for normalization.

primary hfRPE culture [3] = assay: Trans-epithelial electrical resistance (TEER), tight-junction integrity; format: cell-based; conditions: TEER measured after 20 FLBZ feedings, after UAM accumulation
Description: TEER and cell death were measured [Ref 51; incorporated by reference in its entirety]. For cell death assays, maximum possible LDH release per Transwell was measured immediately after 2 μL of the final experimental supernate was taken. The Transwell and supernate was then treated with 0.2% Triton X-100 for 15 minutes at 37° C. followed by collection of an additional 2 μL of supernate. Each experimental LDH release value was first normalized to total LDH release from the vehicle condition. Additionally, all TEER and LDH release measurements were normalized to the vehicle group at the zero-hour timepoint.
To evaluate the safety of D4476 and FLBZ, trans-epithelial electrical resistance (TEER) was measured, a measure of tight-junction integrity, in RPE cultures after prolonged exposure to each compound. As well-formed tight-junctions require myriad cell processes to be optimally coordinated, assessing TEER provides an easily measurable, ongoing, and noninvasive marker for general RPE cell health [Ref. 45; incorporated by reference in its entirety]. […] Lactate dehydrogenase (LDH) release, a combined marker of necrotic and late-stage apoptotic cell death [Refs. 47,48; incorporated by reference in their entireties], was reduced compared to vehicle for all four verified RPE autophagy inducers (FIG. 3b). Exposure of RPE cultures to the oxidant tert-butyl hydroperoxide confirmed the ability of the assay to detect cell death (FIG. 10).
Transepithelial Electrical Resistance (TEER) was tested (FIGS. 16 and 17). TEER is a sensitive measure of toxicity (lower the TEER, the more toxic the drug is). Drugs were added daily and measurements made daily for at least 4-8 days.

[4] = system: primary human fetal RPE (hfRPE) culture; assay: Autophagy induction by LC3 puncta formation (immunocytochemistry); format: cell-based; conditions: 24 hours exposure
Description: (§1) Cell cultures were exposed to each putative autophagy inducer at a concentration indicated in Table 1 for 24 hours, lysed with 36 μL of SDS sample buffer with β-mercaptoethanol, with 15 μg of lysate loaded on a 4-15% gradient gel followed by transfer to a PVDF membrane. Blots were incubated with 1:1000 of LC3A/B antibody (Cell Signaling Technology; #4108s, RRID:AB_2137703) overnight. Quantifying LC3-II/LC3-I ratio is a well-accepted method for det 306 ermining autophagy induction [Ref. 44; incorporated by reference in its entirety], and this ratio was quantified in a non-saturated, linear range using the Azure c500 Imaging System (Azure Biosystems, Dublin, CA, USA) and a combination of AzureSpot and ImageJ software. The data in FIG. 2A are not normalized, whereas the data in FIGS. 2b and 1c are normalized to the average combined value of the vehicle and drug groups within each experimental repeat. The extreme pigmentation of human fetal cultures, combined with the destruction of the LC3 epitope with melanin bleaching protocols, makes detection of LC3 by microscopy in hfRPE difficult. A range of LC3 staining and puncta quantification protocols specifically adapted to pigmented hfRPE culture were employed [Ref. 43; incorporated by reference in its entirety]. At least five fields of view were randomly chosen and analyzed per experimental replicate for LC3 immunocytochemistry.
Autophagy induction was confirmed by assaying the formation of LC3-positive puncta (autophagosomes) by immunocytochemistry [Ref. 44; incorporated by reference in its entirety]. Puncta formation was quantified in automated/unbiased fashion using a customized macro in the Fiji/ImageJ platform [Ref. 43; incorporated by reference in its entirety].
Autophagy induction was measured by LC3 puncta on immunocytochemistry (standard method for autophagy induction) (FIG. 19). Drugs applied to primary human RPE culture for 24 hours.

[5] = system: primary human fetal RPE (hfRPE) culture; assay: Autophagy induction by LC3 lipidation (LC3-II/LC3-I ratio) on Western blot; format: cell-based; conditions: 24 hours exposure, vs vehicle (DMSO)
Description: as §1
To test for autophagy induction, lipidation of the core autophagy protein LC3 was measured by mobility shift on Western blots 24 hours after each compound was added to hfRPE cultures [Ref. 44; incorporated by reference in its entirety]. […] Of the more than 30 putative autophagy inducers tested, only five produced an increased ratio of LC3-II/LC3-I, consistent with increased autophagy (FIG. 2a).
Autophagy induction was measured by LC3-II/LC3-I Ratios on Western Blot (standard method for autophagy induction) (FIG. 18A-C). Drugs were applied to primary human RPE culture for 24 hours.

RPE from mouse eyecups = assay: Ex vivo mouse eyecup autophagy induction (LC3II/LC3I ratio); conditions: 24 hours
Description: FIG. 14. Effect of autophagy positive control Torin on RPE from mouse eyecups (DMSO as control). […] Mouse eyes were enucleated, the anterior segment vitreous, and retina were removed, leaving an eyecup with RPE/choroid exposed. […] RPE/Choroid eyecup was treated with 1 uM Torin1 in our previously established RPE cell culture media for 24 hours. n=4.
FIG. 15. Effect of Flubendazole on RPE from Mouse Eyecups (DMSO as control). Conditions with and without ammonium chloride (NH4Cl) help establish high autophagy flux rates. If true autophagy flux is happening, the LC3II/LC3I ratio should increase further upon addition of NH4Cl, as is the case here. DMSO− and FLBZ−, n=6, FLBZ+ and DMSO+ n=5. Flubendazole tested at 60 uM, lysates collected after 24 hours. Induction did occur in eyecups.
Given the inconsistent results with detecting autophagy induction using intravitreal injection of the positive control, Torin, experiments were conducted to determine whether the lack of responsiveness to intravitreal injections was a drug access issue or whether it was a species or animal vs. culture difference. Additional experiments utilized freshly isolated mouse eyecups with the retina removed to determine whether Torin (and FLBZ) induce autophagy in this context. […] The use of ammonium chloride in these experiments blocks lysosomal degradation.

primary hfRPE culture [6] = assay: UAM-induced senescence (β-galactosidase activity); format: cell-based, human
Text: FIG. 6. FLBZ alleviates UAM-induced senescence and tight-junction disruption. (A) (Top) FLBZ reduces senescence when fed concurrently with oxOS during UAM accumulation. (Bottom) FLBZ is unable to reverse established senescence induced by already accumulated UAM. FLBZ is fed daily together with oxOS for 20 days in a month (top) or after one month of 20 oxOS feedings to induce UAM buildup (bottom). DMSO as vehicle control. Senescence measured by β-galactosidase activity (blue). Scale bar: 50 μm. n=6. […] Left graph n=6, right graph n=12. ns p>0.05, *p<0.05, ***p<0.001.
UAM accumulation and quantification as well as assays on senescence were carried out [Ref. 51; incorporated by reference in its entirety]. UAM granule size was measured with Leica LAS X software using the length of the long axis of the granule ellipse.

For COC(=O)Nc1nc2cc(C(=O)c3ccc(F)cc3)ccc2[nH]1 [FLBZ, Flubendazole], which “Autophagy flux: LC3-II/LC3-I ratio after NH4Cl” value [1] is on record?
The value was “induces autophagy flux”.

What about the “OS phagocytosis efficiency / OS degradative capacity” value (primary hfRPE culture [2]) of the same molecule?
The value was “no effect on OS degradative capacity”.

And the “Cell health by tight-junction integrity (TEER) in cultures with established UAM” value (primary hfRPE culture [3])?
The value was “improved cell health”.

And the “LC3 puncta formation (autophagy induction)” value [4]?
The value was “induced autophagy”.

And the “LC3-II/LC3-I ratio (autophagy induction)” value [5]?
The value was “Induction of autophagy”.

And the “Autophagy induction in eyecups (LC3II/LC3I ratio)” value (RPE from mouse eyecups; mouse RPE/choroid eyecup, Torin 1-5 uM, FLBZ 12-60 uM)?
The value was “induces autophagy well”.

What about the “Autophagy flux in eyecups: LC3-II/LC3-I ratio with vs without ammonium chloride” value (RPE from mouse eyecups; mouse eyecups, FLBZ 60 uM) of the same molecule?
The value was “higher LC3-II/LC3-I ratio with ammonium chloride than without ammonium chloride”.

What about the “Senescence, drug after UAM had accumulated” value (primary hfRPE culture [6]; drug fed after one month of 20 oxOS feedings) of the same molecule?
The value was “cell senescence was not decreased”.

What about the “Senescence, drug cofed with oxOS” value (primary hfRPE culture [6]; fed daily together with oxOS for 20 days in a month, vs vehicle) of the same molecule?
The value was “less senescence”.
